Results taken from paper PMC9866191, “Novel 9-Benzylaminoacridine Derivatives as Dual Inhibitors of Phosphodiesterase 5 and Topoisomerase II for the Treatment of Colon Cancer” (Molecules, 2023).

Tests used:
BT-549 = assay: NCI-60 one-dose screen; type: cell-based; conditions: Homo sapiens; BT-549, Breast Cancer panel; single dose 10^−5 M; read-out: Growth inhibition %
MDA-MB-468 = assay: NCI-60 one-dose screen; type: cell-based; conditions: Homo sapiens; MDA-MB-468, Breast Cancer panel; single dose 10^−5 M; read-out: Growth inhibition %
HOP-62 = assay: NCI-60 one-dose screen; type: cell-based; conditions: Homo sapiens; HOP-62, Non-small cell lung panel; single dose 10^−5 M; read-out: Growth inhibition %
NCI-H460 = assay: NCI-60 one-dose screen; type: cell-based; conditions: Homo sapiens; NCI-H460, Non-small cell lung panel; single dose 10^−5 M; read-out: Growth inhibition %
EKVX = assay: NCI-60 one-dose screen; type: cell-based; conditions: Homo sapiens, Non-small cell lung panel, single dose 10^−5 M, read-out: Growth inhibition %
OVCAR-5 = assay: NCI-60 one-dose screen; type: cell-based; conditions: Homo sapiens; OVCAR-5, Ovarian Cancer panel; single dose 10^−5 M; read-out: Growth inhibition %
OVCAR-4 = assay: NCI-60 one-dose screen; type: cell-based; conditions: Homo sapiens; OVCAR-4, Ovarian Cancer panel; single dose 10^−5 M; read-out: Growth inhibition %
MALME-3M = assay: NCI-60 one-dose screen; type: cell-based; conditions: Homo sapiens, Melanoma panel, single dose 10^−5 M, read-out: Growth inhibition %
NCI-H322M = assay: NCI-60 one-dose screen; type: cell-based; conditions: Homo sapiens, Non-small cell lung panel, single dose 10^−5 M, read-out: Growth inhibition %
RXF 393 = assay: NCI-60 one-dose screen; type: cell-based; conditions: Homo sapiens; RXF 393, Renal Cancer panel; single dose 10^−5 M; read-out: Growth inhibition %
DU-145 = assay: NCI-60 one-dose screen; type: cell-based; conditions: Homo sapiens; DU-145, Prostate Cancer panel; single dose 10^−5 M; read-out: Growth inhibition %
PC-3 = assay: NCI-60 one-dose screen; type: cell-based; conditions: Homo sapiens; PC-3, Prostate Cancer panel; single dose 10^−5 M; read-out: Growth inhibition %
MOLT-4 = assay: NCI-60 one-dose screen; type: cell-based; conditions: Homo sapiens; MOLT-4, Leukemia panel; single dose 10^−5 M; read-out: Growth inhibition %
HL-60(TB) = assay: NCI-60 one-dose screen; type: cell-based; conditions: Homo sapiens, Leukemia panel, single dose 10^−5 M, read-out: Growth inhibition %
SNB-19 = assay: NCI-60 one-dose screen; type: cell-based; conditions: Homo sapiens; SNB-19, CNS Cancer panel; single dose 10^−5 M; read-out: Growth inhibition %
SF-539 = assay: NCI-60 one-dose screen; type: cell-based; conditions: Homo sapiens; SF-539, CNS Cancer panel; single dose 10^−5 M; read-out: Growth inhibition %
UO-31 = assay: NCI-60 one-dose screen; type: cell-based; conditions: Homo sapiens; UO-31, Renal Cancer panel; single dose 10^−5 M; read-out: Growth inhibition %
MCF7 = assay: NCI-60 one-dose screen; type: cell-based; conditions: Homo sapiens; MCF7, Breast Cancer panel; single dose 10^−5 M; read-out: Growth inhibition %
MDA-MB-231/ATCC = assay: NCI-60 one-dose screen; type: cell-based; conditions: Homo sapiens, Breast Cancer panel, single dose 10^−5 M, read-out: Growth inhibition %
NCI-H226 = assay: NCI-60 one-dose screen; type: cell-based; conditions: Homo sapiens; NCI-H226, Non-small cell lung panel; single dose 10^−5 M; read-out: Growth inhibition %
HCT-116 [1] = assay: NCI-60 one-dose screen; type: cell-based; conditions: Homo sapiens, read-out: Growth inhibition %
786-0 = assay: NCI-60 one-dose screen; type: cell-based; conditions: Homo sapiens; 786-0, Renal Cancer panel; single dose 10^−5 M; read-out: Growth inhibition %
A549/ATCC = assay: NCI-60 one-dose screen; type: cell-based; conditions: Homo sapiens, Non-small cell lung panel, single dose 10^−5 M, read-out: Growth inhibition %
NCI-H23 = assay: NCI-60 one-dose screen; type: cell-based; conditions: Homo sapiens; NCI-H23, Non-small cell lung panel; single dose 10^−5 M; read-out: Growth inhibition %
A498 = assay: NCI-60 one-dose screen; type: cell-based; conditions: Homo sapiens; A498, Renal Cancer panel; single dose 10^−5 M; read-out: Growth inhibition %
TK-10 = assay: NCI-60 one-dose screen; type: cell-based; conditions: Homo sapiens; TK-10, Renal Cancer panel; single dose 10^−5 M; read-out: Growth inhibition %
RPMI-8226 = assay: NCI-60 one-dose screen; type: cell-based; conditions: Homo sapiens; RPMI-8226, Leukemia panel; single dose 10^−5 M; read-out: Growth inhibition %
OVCAR-8 = assay: NCI-60 one-dose screen; type: cell-based; conditions: Homo sapiens; OVCAR-8, Ovarian Cancer panel; single dose 10^−5 M; read-out: Growth inhibition %
UACC-62 = assay: NCI-60 one-dose screen; type: cell-based; conditions: Homo sapiens; UACC-62, Melanoma panel; single dose 10^−5 M; read-out: Growth inhibition %
HT29 = assay: NCI-60 one-dose screen; type: cell-based; conditions: Homo sapiens, HT-29; HT29, Colon Cancer panel; single dose 10^−5 M; read-out: Growth inhibition %
HS 578T = assay: NCI-60 one-dose screen; type: cell-based; conditions: Homo sapiens, Breast Cancer panel, single dose 10^−5 M, read-out: Growth inhibition %
CCD-966SK = assay: MTT cell proliferation assay, CCD-966SK; conditions: CCD966SK skin fibroblast; 10 µM; 72 h MTT
HCT-116 [2] = assay: MTT cell proliferation assay, HCT-116; conditions: for % Inhibition at 10 µM: 72 h MTT, means ± SD; for IC50: read-out: IC50 μM, 72 h MTT, means ± SD, three experiments
Method: In the MTT assay, 96-well culture plates were used. A total of 7 × 10^4 cells per well were seeded, and test materials were added to the cells at various concentrations [47, 48]. Human cancer and non-cancer cell lines were purchased commercially from the American Type Culture Collection (ATCC). After 72 h, the cytotoxicity of the compounds and paclitaxel (as a positive control group) was detected using the MTT method (thiazolyl blue tetrazolium bromide, Sigma-M2128). Absorbance values at 570 and 620 nm (OD = OD570–OD620) were measured using an ELISA reader (Anthos Labtec Instruments, Salzburg, Austria).

| SMILES | inhibition at 10 µM (BT-549) [%] | inhibition at 10 µM (MDA-MB-468) [%] | inhibition at 10 µM (HOP-62) [%] | inhibition at 10 µM (NCI-H460) [%] | inhibition at 10 µM (EKVX) [%] | inhibition at 10 µM (OVCAR-5) [%] | inhibition at 10 µM (OVCAR-4) [%] | inhibition at 10 µM (MALME-3M) [%] | inhibition at 10 µM (NCI-H322M) [%] | inhibition at 10 µM (RXF 393) [%] | inhibition at 10 µM (DU-145) [%] | inhibition at 10 µM (PC-3) [%] | inhibition at 10 µM (MOLT-4) [%] | inhibition at 10 µM (HL-60(TB)) [%] | inhibition at 10 µM (SNB-19) [%] | inhibition at 10 µM (SF-539) [%] | inhibition at 10 µM (UO-31) [%] | inhibition at 10 µM (MCF7) [%] | inhibition at 10 µM (MDA-MB-231/ATCC) [%] | inhibition at 10 µM (NCI-H226) [%] | also measured |
| --- | --- | --- | --- | --- | --- | --- | --- | --- | --- | --- | --- | --- | --- | --- | --- | --- | --- | --- | --- | --- | --- |
| Clc1ccccc1CNc1c2ccccc2nc2ccccc12 [Compound 11, Acridin-9-yl-(2-chlorobenzyl)-amine] | 61.9 | 128 | 59.1 | 91.2 | 74.1 | 67.4 | 86.9 | 81 | 73 | 85 | 68.2 | 82.9 | 94.9 | 86.4 | 74.2 | 93.8 | 82.5 | 100 | 71 | 61.1 | inhibition at 10 µM (HCT-116 [1]): 91.9%; inhibition at 10 µM (786-0): 75.5%; inhibition at 10 µM (A549/ATCC): 80.8%; inhibition at 10 µM (NCI-H23): 78.4%; inhibition at 10 µM (A498): 106%; inhibition at 10 µM (TK-10): 57.5%; inhibition at 10 µM (RPMI-8226): 127%; inhibition at 10 µM (OVCAR-8): 76.2%; inhibition at 10 µM (UACC-62): 59%; inhibition at 10 µM (HT29): 94.5%; inhibition at 10 µM (HS 578T): 50%; % Inhibition at 10 µM (CCD-966SK): 36.77 ± 3.49%; % Inhibition at 10 µM (HCT-116 [2]): 63.49 ± 1.20%; IC50 (HCT-116 [2]): 7.13 ± 0.24 µM |
| Clc1cccc(CNc2c3ccccc3nc3ccccc23)c1 [Compound 12, Acridin-9-yl-(3-chlorobenzyl)-amine] | 40.9 | 118 | 54.5 | 85.8 | 72.8 | 67.6 | 81.2 | 55 | 68.7 | 81 | 68.3 | 76.5 | 98.9 | 91 | 73.6 | 90.7 | 84 | 99.1 | 70.6 | 52 | inhibition at 10 µM (HCT-116 [1]): 91.3%; inhibition at 10 µM (786-0): 74.8%; inhibition at 10 µM (A549/ATCC): 72.1%; inhibition at 10 µM (NCI-H23): 68%; inhibition at 10 µM (A498): 103%; inhibition at 10 µM (TK-10): 47.9%; inhibition at 10 µM (RPMI-8226): 124%; inhibition at 10 µM (OVCAR-8): 68.9%; inhibition at 10 µM (UACC-62): 47.5%; inhibition at 10 µM (HT29): 91.4%; inhibition at 10 µM (HS 578T): 46.3%; % Inhibition at 10 µM (CCD-966SK): 45.43 ± 0.42%; % Inhibition at 10 µM (HCT-116 [2]): 63.40 ± 7.54%; IC50 (HCT-116 [2]): 4.84 ± 0.05 µM |
| Clc1ccc(CNc2c3ccccc3nc3ccccc23)cc1 [Compound 13, Acridin-9-yl-(4-chlorobenzyl)-amine] | 29.1 | 70.4 | 47 | 83.6 | 37.4 | 49.5 | 66.9 | 60.4 | 45.9 | 70.3 | 45.2 | 61.3 | 95.4 | 55.3 | 56.9 | 69.7 | 73 | 84 | 45.2 | 24.5 | inhibition at 10 µM (HCT-116 [1]): 84.3%; inhibition at 10 µM (786-0): 64.7%; inhibition at 10 µM (A549/ATCC): 60.7%; inhibition at 10 µM (NCI-H23): 47%; inhibition at 10 µM (A498): 79.2%; inhibition at 10 µM (TK-10): 50.3%; inhibition at 10 µM (RPMI-8226): 92%; inhibition at 10 µM (OVCAR-8): 68.1%; inhibition at 10 µM (UACC-62): 29.3%; inhibition at 10 µM (HT29): 85%; inhibition at 10 µM (HS 578T): 46.2%; % Inhibition at 10 µM (CCD-966SK): 2.73 ± 4.11%; % Inhibition at 10 µM (HCT-116 [2]): 11.67 ± 4.59% |
| c1coc(CNc2c3ccccc3nc3ccccc23)c1 [Compound 14, Acridin-9-yl-furan-2-ylmethyl-amine] | 2.59 | 70.7 | 30.4 | 43.5 | 38 | 23.6 | 43.1 | 9.63 | 35 | 38.5 | 24 | 33 | 72.8 | 6.96 | 37.2 | 34.1 | 60.5 | 78.7 | 39.5 | 37.1 | inhibition at 10 µM (HCT-116 [1]): 76%; inhibition at 10 µM (786-0): 34.3%; inhibition at 10 µM (A549/ATCC): 38.1%; inhibition at 10 µM (NCI-H23): 36.4%; inhibition at 10 µM (A498): 79.9%; inhibition at 10 µM (TK-10): 11.6%; inhibition at 10 µM (RPMI-8226): 43.4%; inhibition at 10 µM (OVCAR-8): 52.5%; inhibition at 10 µM (UACC-62): 33.9%; inhibition at 10 µM (HT29): 64.9%; inhibition at 10 µM (HS 578T): 16%; % Inhibition at 10 µM (CCD-966SK): 33.89 ± 0.85%; % Inhibition at 10 µM (HCT-116 [2]): 58.83 ± 1.72%; IC50 (HCT-116 [2]): 8.41 ± 0.19 µM |
| Fc1cccc(CNc2c3ccccc3nc3ccccc23)c1F [Compound 20, Acridin-9-yl-(2,3-difluorobenzyl)-amine] | 9.44 | 78 | 27.3 | 52 | 37.1 | 26.8 | 50.1 | 5.87 | 36.6 | 40.5 | 23.3 | 42.9 | 71.6 | 24 | 41.5 | 44.5 | 60 | 70.2 | 41.8 | 27.1 | inhibition at 10 µM (HCT-116 [1]): 82.5%; inhibition at 10 µM (786-0): 34.6%; inhibition at 10 µM (A549/ATCC): 43.3%; inhibition at 10 µM (NCI-H23): 39.4%; inhibition at 10 µM (A498): 101%; inhibition at 10 µM (TK-10): 10.8%; inhibition at 10 µM (RPMI-8226): 47.1%; inhibition at 10 µM (OVCAR-8): 49.2%; inhibition at 10 µM (UACC-62): 24.3%; inhibition at 10 µM (HT29): 70.9%; inhibition at 10 µM (HS 578T): 13%; % Inhibition at 10 µM (CCD-966SK): 40.30 ± 3.56%; % Inhibition at 10 µM (HCT-116 [2]): 58.56 ± 3.21%; IC50 (HCT-116 [2]): 4.96 ± 0.02 µM |
